Measured values taken from US7691858B2, “Kinase inhibitors and methods of use thereof” (TargeGen, Inc., priority 2006, dated 2010).

Key:
Akt phosphorylation = experiment: VEGF-induced Akt phosphorylation in vivo (lung lysates, Western blot); set-up: species or system Sprague Dawley rats; settings: 0.5 and 5 mg/kg iv, VEGF 30, 60 or 120 min later
Method: FIG. 5. Inhibition of VEGF-induced Akt phosphorylation in vivo. […] Lungs were explanted 5 min after VEGF or saline injection, processed to tissue lysates, and lysates probed in Western blots to detect either phosphorylated Akt or total Akt (as a loading control).
The ability of compounds to impact PI3K activity in vivo was assessed by examining compound influence on vascular endothelial growth factor (VEGF)-induced Akt kinase phosphorylation (VEGF stimulation being an inducer of PI3K activity, and Akt kinase being a direct target of PI3K). Sprague Dawley rats were first injected intravenously (iv) with either vehicle or test compound at 5 mg/kg, and then 30, 60 or 120 min later injected iv with VEGF. Five minutes later, lungs were harvested and used to generate tissue lysates, which were then probed for phosphorylated Akt using Western blot technology; non-phosphorylated Akt was also probed in the same blots as a loading control. In other studies, test compounds was dosed at either 0.5 or 5 mg/kg, and VEGF delivered 60 min later, in order to assess the dose-response relationship of a compound's activities. […]

EphA2 = EphA2 (Homo sapiens, UniProt P29317); experiment: Kinase panel screen; assay type: biochemical; settings: Compound I and ATP 10 μM
MKK7b = molecular target: T1, MKK7b (Homo sapiens, UniProt O14733); experiment: Kinase panel screen; assay type: biochemical; settings: Compound I and ATP 10 μM
T1 construct: purchased Upstate USA or Invitrogen (contract screening service)

MST2 = molecular target: T2, MST2 (Homo sapiens, UniProt Q13188); experiment: Kinase panel screen; assay type: biochemical; settings: Compound I and ATP 10 μM
T2 construct: purchased Upstate USA or Invitrogen (commercial screening service)

Rsk3 = molecular target: T3, Rsk3 (Homo sapiens, UniProt Q15349); experiment: Kinase panel screen; assay type: biochemical; settings: Compound I and ATP 10 μM
T3 construct: purchased Upstate USA or Invitrogen (commercial screening service)

CDK7 = molecular target: T4, CDK7 (Homo sapiens, UniProt P50613); experiment: Kinase panel screen; assay type: biochemical; settings: Compound I and ATP 10 μM
T4 construct: purchased Upstate USA or Invitrogen (contract screening service)

KDR = molecular target: T5, KDR (Homo sapiens, UniProt P35968); experiment: Kinase panel screen; assay type: biochemical; settings: Compound I and ATP 10 μM
T5 construct: purchased Upstate USA or Invitrogen (contract screening service)

Yes = Yes (Homo sapiens, UniProt P07947); experiment: Kinase panel screen; assay type: biochemical; settings: Compound I and ATP 10 μM
ZIPK = ZIPK (Homo sapiens, UniProt O43293); experiment: Kinase panel screen; assay type: biochemical; settings: Compound I and ATP 10 μM
Chain of ZIPK (O43293 whole entry): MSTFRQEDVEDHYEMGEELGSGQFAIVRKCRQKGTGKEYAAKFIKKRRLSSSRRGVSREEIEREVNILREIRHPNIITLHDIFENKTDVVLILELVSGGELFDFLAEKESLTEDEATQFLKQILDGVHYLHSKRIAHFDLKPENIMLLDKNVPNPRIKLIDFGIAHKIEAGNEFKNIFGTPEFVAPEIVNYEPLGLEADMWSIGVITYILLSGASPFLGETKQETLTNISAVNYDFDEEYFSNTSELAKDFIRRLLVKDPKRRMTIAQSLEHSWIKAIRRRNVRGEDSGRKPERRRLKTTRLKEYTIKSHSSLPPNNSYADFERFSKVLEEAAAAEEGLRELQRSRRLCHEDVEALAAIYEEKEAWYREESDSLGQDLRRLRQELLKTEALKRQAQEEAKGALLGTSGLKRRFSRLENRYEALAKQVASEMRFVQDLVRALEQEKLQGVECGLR

T1 sequence (O14733 whole entry): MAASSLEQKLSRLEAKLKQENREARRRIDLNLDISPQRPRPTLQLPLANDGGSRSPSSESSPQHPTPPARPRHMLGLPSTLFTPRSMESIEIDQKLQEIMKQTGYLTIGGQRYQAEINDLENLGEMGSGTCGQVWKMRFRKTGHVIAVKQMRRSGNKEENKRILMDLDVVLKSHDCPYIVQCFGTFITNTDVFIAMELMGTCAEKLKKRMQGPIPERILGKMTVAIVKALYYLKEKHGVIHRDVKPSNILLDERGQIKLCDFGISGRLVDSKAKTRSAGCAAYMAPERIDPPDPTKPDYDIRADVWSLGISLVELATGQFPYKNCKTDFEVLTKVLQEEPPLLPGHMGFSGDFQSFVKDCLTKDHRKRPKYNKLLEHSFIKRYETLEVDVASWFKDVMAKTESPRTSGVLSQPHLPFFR
T3 sequence (Q15349 whole entry): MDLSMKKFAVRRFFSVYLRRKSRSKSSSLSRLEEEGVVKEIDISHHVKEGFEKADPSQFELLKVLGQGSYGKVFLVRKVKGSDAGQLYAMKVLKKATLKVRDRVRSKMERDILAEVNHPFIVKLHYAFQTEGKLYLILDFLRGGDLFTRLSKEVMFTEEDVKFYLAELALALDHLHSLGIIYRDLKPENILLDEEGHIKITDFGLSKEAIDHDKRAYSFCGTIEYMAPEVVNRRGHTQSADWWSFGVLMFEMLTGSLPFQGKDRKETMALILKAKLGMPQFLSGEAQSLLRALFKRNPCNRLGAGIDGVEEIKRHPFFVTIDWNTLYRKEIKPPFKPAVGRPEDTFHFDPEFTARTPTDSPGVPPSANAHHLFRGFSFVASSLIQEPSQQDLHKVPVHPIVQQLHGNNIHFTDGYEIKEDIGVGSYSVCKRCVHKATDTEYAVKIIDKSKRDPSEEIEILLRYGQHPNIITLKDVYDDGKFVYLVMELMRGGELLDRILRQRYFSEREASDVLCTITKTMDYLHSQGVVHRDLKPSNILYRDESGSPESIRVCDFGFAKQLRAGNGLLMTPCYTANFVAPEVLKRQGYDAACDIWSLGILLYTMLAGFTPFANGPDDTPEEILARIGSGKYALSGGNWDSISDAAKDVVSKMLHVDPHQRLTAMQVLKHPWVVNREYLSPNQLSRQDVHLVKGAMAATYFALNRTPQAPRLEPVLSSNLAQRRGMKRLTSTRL
Chain of EphA2 (P29317 24-976): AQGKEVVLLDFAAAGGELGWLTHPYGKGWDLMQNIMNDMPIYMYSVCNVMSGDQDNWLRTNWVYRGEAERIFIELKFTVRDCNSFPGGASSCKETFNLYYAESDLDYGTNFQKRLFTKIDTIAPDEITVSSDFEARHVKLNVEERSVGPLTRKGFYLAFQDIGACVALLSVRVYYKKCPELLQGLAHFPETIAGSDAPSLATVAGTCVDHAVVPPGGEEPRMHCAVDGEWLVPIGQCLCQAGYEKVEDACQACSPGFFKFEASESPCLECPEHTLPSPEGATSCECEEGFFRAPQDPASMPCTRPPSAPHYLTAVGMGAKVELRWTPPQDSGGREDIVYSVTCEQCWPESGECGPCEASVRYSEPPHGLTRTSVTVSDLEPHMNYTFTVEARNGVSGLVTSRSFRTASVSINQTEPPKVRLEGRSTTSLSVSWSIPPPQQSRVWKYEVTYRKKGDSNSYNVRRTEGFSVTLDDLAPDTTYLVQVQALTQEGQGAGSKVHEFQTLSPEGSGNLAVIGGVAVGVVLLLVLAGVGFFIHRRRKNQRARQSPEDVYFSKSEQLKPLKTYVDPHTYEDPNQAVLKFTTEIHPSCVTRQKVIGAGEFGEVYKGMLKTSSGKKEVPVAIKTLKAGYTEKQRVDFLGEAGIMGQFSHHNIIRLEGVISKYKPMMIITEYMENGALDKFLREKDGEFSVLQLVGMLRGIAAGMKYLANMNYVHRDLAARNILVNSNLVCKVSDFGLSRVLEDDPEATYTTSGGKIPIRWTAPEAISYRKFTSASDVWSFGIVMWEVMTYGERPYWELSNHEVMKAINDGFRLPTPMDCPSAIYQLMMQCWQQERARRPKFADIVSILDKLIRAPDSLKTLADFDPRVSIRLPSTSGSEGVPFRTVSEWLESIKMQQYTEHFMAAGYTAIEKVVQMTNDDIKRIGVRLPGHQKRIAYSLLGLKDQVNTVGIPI
T5 sequence (P35968 20-1356): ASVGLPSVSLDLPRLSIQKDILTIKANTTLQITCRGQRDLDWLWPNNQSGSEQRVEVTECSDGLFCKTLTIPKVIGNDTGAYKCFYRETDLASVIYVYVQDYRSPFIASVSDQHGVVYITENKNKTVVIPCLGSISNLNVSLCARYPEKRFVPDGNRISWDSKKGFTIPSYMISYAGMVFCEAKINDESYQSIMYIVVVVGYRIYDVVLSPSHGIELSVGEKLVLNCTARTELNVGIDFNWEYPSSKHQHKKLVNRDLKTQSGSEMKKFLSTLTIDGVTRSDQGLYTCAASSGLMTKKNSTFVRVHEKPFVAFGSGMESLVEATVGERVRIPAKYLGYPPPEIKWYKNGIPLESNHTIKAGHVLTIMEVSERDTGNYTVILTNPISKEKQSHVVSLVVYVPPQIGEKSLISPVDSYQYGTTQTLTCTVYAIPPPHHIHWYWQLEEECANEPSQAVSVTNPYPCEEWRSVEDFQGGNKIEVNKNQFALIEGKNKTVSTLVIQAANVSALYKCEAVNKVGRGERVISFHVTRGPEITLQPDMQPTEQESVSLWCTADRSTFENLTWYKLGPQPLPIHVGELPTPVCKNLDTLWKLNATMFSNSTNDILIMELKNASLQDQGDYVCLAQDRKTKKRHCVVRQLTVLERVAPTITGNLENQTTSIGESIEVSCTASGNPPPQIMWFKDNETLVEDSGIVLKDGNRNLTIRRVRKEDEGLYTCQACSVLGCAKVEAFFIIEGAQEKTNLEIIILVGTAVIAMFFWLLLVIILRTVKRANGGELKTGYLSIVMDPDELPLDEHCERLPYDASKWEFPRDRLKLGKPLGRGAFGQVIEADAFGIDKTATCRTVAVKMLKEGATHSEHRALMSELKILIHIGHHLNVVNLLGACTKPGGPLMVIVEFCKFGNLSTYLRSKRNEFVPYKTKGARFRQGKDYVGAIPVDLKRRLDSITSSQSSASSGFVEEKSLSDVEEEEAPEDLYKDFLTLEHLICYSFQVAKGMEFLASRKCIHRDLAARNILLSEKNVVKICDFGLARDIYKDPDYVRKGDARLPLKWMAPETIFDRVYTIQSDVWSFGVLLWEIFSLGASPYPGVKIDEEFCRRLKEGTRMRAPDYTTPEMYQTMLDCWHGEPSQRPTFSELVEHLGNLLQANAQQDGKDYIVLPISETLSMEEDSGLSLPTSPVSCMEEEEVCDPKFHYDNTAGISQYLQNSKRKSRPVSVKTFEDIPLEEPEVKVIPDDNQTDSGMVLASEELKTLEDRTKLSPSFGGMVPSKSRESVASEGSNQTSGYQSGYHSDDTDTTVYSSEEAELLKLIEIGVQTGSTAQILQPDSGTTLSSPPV
T2 sequence (Q13188 whole entry): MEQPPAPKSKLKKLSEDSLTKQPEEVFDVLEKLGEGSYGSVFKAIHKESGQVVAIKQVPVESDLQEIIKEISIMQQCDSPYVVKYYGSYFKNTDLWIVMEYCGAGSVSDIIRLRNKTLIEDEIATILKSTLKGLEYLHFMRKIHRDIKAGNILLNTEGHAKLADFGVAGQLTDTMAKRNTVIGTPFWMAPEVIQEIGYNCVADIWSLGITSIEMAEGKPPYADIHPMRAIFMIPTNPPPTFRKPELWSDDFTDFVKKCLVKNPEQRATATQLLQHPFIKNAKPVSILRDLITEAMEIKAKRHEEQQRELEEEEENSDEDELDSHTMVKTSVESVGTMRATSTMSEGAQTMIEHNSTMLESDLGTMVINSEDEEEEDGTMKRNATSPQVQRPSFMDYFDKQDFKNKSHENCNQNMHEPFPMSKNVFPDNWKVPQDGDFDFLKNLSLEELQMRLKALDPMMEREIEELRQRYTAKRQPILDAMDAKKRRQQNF
Chain of Yes (P07947 whole entry): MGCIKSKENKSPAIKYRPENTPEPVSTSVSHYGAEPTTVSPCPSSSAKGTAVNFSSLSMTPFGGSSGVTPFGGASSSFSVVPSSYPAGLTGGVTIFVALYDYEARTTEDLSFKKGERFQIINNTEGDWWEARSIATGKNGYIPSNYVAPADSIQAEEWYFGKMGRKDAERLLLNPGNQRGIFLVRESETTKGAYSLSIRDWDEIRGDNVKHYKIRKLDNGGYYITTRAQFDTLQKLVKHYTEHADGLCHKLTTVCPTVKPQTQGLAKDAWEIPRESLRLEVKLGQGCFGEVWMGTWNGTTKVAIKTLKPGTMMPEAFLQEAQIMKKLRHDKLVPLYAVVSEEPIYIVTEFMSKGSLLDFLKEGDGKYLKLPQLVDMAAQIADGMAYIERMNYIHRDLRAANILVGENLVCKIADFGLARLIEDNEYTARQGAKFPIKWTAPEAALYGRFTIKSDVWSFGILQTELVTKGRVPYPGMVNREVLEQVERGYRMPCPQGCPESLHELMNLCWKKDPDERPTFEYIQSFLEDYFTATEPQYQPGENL

Nc1nc(N)c2nc(-c3cccc(O)c3)c(-c3cccc(O)c3)nc2n1 [Compound I, 6,7-bis-(3-hydroxyphenyl)-pteridine-2,4-diamine]
VEGF-induced Akt phosphorylation in lung lysates (Akt phosphorylation): blocked
VEGF-induced Akt phosphorylation in lung lysates (Akt phosphorylation; listed as 6,7-bis-(3-hydroxyphenyl)-pteridine-2,4-diamine): Inhibition
Percent Control, EphA2 (EphA2): 29%
Percent Control, MKK7b (MKK7b): 79%
Percent Control, MST2 (MST2): 91%
Percent Control, Rsk3 (Rsk3): 90%
Percent Control, CDK7 (CDK7): 82%
Percent Control, KDR (KDR): 62%
Percent Control, Yes (Yes): 30%
Percent Control, ZIPK (ZIPK): 112%
